Measured values published in PMC3706556 (Environmental microbiology, 2013).

Assays:
CYP142A2 [1] = target: T1, CYP142A2 (Mycolicibacterium smegmatis, UniProt A0R4Q6); test: biochemical
CYP125A3 = CYP125A3 (Mycolicibacterium smegmatis, UniProt A0R4Y3); test: biochemical; format: binding, Mycobacterium smegmatis mc2 155; details: for Soret band position after ligand addition: CYP125A3 3 μM, ligand 50 μM, resting Soret 393 nm with shoulder at 415 nm
CYP142A2 [2] = target: T1, CYP142A2; details: CYP142A2 3 μM, ligand 50 μM; resting Soret 418 nm

Chain of CYP125A3 (A0R4Y3 whole entry): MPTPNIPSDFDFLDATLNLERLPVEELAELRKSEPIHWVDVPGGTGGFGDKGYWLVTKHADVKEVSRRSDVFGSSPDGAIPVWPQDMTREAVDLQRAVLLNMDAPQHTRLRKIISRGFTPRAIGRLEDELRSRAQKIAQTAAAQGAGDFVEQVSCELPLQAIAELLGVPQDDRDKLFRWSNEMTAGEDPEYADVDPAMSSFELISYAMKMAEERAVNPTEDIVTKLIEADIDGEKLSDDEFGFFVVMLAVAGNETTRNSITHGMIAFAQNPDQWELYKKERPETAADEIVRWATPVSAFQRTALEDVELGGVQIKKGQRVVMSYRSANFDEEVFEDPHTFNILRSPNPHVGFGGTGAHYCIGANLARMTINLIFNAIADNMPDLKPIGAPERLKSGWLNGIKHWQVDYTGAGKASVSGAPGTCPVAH
T1 sequence (A0R4Q6 whole entry): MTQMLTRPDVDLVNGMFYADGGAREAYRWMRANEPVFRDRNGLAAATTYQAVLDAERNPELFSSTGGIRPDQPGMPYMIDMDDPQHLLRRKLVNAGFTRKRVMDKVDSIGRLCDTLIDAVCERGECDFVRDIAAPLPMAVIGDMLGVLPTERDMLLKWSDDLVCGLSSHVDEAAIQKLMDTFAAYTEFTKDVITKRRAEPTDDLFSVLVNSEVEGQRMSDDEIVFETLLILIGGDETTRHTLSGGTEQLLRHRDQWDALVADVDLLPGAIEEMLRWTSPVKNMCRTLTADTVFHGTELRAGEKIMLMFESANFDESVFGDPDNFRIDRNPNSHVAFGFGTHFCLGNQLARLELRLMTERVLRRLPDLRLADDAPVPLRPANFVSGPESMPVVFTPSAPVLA

With `CC(C)CCC[C@@H](C)[C@H]1CC[C@H]2[C@@H]3CCC4=CC(=O)CC[C@]4(C)[C@H]3CC[C@]12C` [Cholest-4-en-3-one] the Kd (CYP142A2 [1]) was 0.52 ± 0.26 µM and the Kd (CYP125A3) was 2.3 ± 1.4 µM.
`CC(C)CCC[C@@H](C)[C@H]1CC[C@H]2[C@@H]3CC=C4C[C@@H](O)CC[C@]4(C)[C@H]3CC[C@]12C` [Cholesterol] was tested, and the Kd (CYP142A2 [1]) was 0.14 ± 0.07 µM, the Kd (CYP125A3) was 1.1 ± 0.5 µM and the “Soret band position after ligand addition” value (“Soret band position” for short) (CYP125A3) was 393 nm. The “Soret band position” value (CYP142A2 [2]) was 393 nm.
`Clc1ccccc1C(c1ccccc1)(c1ccccc1)n1ccnc1` [Clotrimazole] was tested, and the Kd (CYP142A2 [1]) was 16.2 ± 0.75 µM and the Kd (CYP125A3) was 14.5 ± 1.58 µM.
In the case of `Clc1ccc(COC(Cn2ccnc2)c2ccc(Cl)cc2Cl)cc1` (centres unmarked) [Econazole], the Kd (CYP142A2 [1]) is reported as 7.4 ± 0.52 µM, the Kd (CYP125A3) is reported as 7.38 ± 0.71 µM and the “Soret band position” value (CYP125A3) is reported as 415 nm. For the same molecule, the “Soret band position” value (CYP142A2 [2]) was 422 nm.
Work on `Clc1ccc(COC(Cn2ccnc2)c2ccc(Cl)cc2Cl)c(Cl)c1` (centres unmarked) [Miconazole] yielded a Kd (CYP142A2 [1]) of 6.58 ± 0.7 µM and a Kd (CYP125A3) of 1.66 ± 0.21 µM.
